The results in this text go back to patent US12545673B2, “Imidazopyridine derivative and pharmaceutical composition comprising same as active ingredient” (TSD LIFE SCIENCES CO., LTD., priority 2019, dated 2026).

Assay [1] relates to acute lymphoblastic leukemia cell line Jurkat. In words: Cancer cell proliferation inhibitory activity evaluation 2 (CCK-8), Jurkat. Type of assay: cell-based. The note with it: Homo sapiens. As to the method: (§1) In order to identify whether the compounds have anticancer activity, the acute myeloid leukemia cell line U937, the acute lymphoblastic leukemia cell line Jurkat, the gastric cancer cell lines AGS, […], and the human lung cancer cell line A549 were used. The cell line was cultured using RPMI-1640 medium (U937, Jurkat, AGS, A549) or DMEM (Hs746T) medium containing 10% fetal bovine serum. Welgene products were used as the medium, and hyclone products were used for fetal bovine serum, and 1% of antibiotics for cell culture from Gibco were used as the culture medium.

Assay [2] concerns human lung cancer cell line A549. Kind of assay: Cancer cell proliferation inhibitory activity evaluation 2 (CCK-8), A549. Type of assay: cell-based. As to the method:
as §1

Assay [3] deals with gastric cancer cell line Hs746T. In words: Cancer cell proliferation inhibitory activity evaluation 2 (CCK-8), Hs746T. The note with it: Homo sapiens. Type of assay: cell-based. As to the method: as §1
A further assay deals with MLK3 (Homo sapiens (Human), UniProt Q16584). In words: Evaluation of inhibitory activity of enzyme units, MLK3 ([γ-33P]-ATP filter assay). As to conditions: read-out: IC50(nM) MLK3.
The test system of assay [4] is gastric cancer cell line AGS. Kind of assay: Cancer cell proliferation inhibitory activity evaluation 2 (CCK-8), AGS. In kind it is cell-based. The note with it: Homo sapiens, read-out: Cancer cell proliferation inhibitory activity AGS. How it is done:
as §1

For assay [5], the system named is acute myeloid leukemia cell line U937. Kind of assay: Cancer cell proliferation inhibitory activity evaluation 2 (CCK-8), U937. Type of assay: cell-based. As to conditions: Homo sapiens, read-out: Cancer cell proliferation inhibitory activity U937. As to the method: as §1
The target in another assay is MLK1 (Homo sapiens (Human), UniProt P80192). In words: Evaluation of inhibitory activity of enzyme units, MLK1 ([γ-33P]-ATP filter assay). Type of assay: biochemical.
Where [6] appears, read: 10 μM, 72 hours, CCK-8, read-out: Cancer cell proliferation inhibitory activity Jurkat.
The mark [7] stands for this setting: A549, 10 μM, 72 hours, CCK-8, read-out: Cancer cell proliferation inhibitory activity A549.
Where [8] appears, read: 10 μM, 72 hours, CCK-8, read-out: Cancer cell proliferation inhibitory activity Hs746T.
The mark [9] stands for this setting: U-937, 10 μM, 72 hours, CCK-8 (Table 3).
The mark [10] stands for this setting: 72 h, read-out: Cancer cell proliferation inhibitory activity Jurkat.
Setting [11] is: A549, 72 h, read-out: Cancer cell proliferation inhibitory activity A549.
Setting [12] is: 72 h, read-out: Cancer cell proliferation inhibitory activity Hs746T.

SMILES strings stand for the structures. Read-outs that look alike come from different tables or passages of the source. Where only a bound is given, the exact number is not on record here.

MLK3, sequence (Q16584 whole entry, looked up): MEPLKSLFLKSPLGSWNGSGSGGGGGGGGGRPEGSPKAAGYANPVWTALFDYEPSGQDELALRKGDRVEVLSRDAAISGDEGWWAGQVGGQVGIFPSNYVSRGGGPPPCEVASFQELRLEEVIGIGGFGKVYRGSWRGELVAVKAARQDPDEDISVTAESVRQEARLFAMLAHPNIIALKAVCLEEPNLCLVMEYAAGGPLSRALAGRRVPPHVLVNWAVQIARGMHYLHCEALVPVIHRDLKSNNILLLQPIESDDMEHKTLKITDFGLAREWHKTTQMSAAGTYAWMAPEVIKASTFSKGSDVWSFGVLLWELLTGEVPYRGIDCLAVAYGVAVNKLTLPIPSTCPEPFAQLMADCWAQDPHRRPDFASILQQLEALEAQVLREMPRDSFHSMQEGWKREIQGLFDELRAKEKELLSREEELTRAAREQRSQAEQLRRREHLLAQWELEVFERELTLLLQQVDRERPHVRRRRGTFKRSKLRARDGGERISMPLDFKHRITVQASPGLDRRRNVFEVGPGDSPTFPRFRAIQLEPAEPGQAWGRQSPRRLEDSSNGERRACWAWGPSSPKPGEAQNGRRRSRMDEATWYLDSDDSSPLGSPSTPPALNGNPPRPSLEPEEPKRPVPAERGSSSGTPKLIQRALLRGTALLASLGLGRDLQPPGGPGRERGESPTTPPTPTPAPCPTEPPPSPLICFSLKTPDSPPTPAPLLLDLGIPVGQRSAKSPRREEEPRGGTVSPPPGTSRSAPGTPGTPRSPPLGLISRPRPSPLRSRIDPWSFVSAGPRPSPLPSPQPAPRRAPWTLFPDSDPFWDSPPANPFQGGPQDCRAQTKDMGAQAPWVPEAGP
MLK1, sequence (P80192 whole entry, looked up): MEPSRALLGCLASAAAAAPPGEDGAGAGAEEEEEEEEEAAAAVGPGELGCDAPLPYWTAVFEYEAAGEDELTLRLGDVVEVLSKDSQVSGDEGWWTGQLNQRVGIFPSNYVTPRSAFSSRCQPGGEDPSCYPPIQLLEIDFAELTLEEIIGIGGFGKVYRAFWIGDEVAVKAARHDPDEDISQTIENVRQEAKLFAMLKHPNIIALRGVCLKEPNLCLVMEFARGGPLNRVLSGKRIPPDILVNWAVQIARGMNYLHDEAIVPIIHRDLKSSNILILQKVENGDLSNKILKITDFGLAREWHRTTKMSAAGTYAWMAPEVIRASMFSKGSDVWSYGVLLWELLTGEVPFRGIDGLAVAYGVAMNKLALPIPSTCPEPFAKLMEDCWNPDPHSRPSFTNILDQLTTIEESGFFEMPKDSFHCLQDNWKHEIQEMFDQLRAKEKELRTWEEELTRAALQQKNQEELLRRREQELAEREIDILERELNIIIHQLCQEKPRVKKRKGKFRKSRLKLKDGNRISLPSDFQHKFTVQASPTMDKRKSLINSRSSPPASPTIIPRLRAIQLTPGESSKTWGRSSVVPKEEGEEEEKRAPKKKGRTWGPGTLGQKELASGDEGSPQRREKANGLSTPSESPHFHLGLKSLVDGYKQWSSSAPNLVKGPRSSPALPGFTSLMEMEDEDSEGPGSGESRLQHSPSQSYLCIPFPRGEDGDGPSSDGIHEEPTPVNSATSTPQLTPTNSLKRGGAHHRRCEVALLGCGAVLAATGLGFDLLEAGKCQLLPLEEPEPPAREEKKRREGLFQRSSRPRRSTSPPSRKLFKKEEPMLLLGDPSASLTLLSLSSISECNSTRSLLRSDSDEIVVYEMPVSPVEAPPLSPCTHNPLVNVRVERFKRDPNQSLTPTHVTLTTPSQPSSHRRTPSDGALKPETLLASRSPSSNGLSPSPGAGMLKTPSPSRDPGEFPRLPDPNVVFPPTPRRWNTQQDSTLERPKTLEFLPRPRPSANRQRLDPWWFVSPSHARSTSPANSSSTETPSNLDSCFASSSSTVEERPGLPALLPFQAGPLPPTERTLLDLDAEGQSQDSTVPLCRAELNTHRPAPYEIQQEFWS

As a reminder, the IC50 is the concentration needed to halve the response being measured. On to `CCS(=O)(=O)N1CC[C@H](Nc2c(Br)cnc3nc(-c4cc(C)n(-c5cc(NC(=O)CN(C)C)ccc5C)c4C)[nH]c23)C1` [Example 74, N-(3-(3-(6-bromo-7-(((S)-1-(ethylsulfonyl)pyrrolidine-3-yl)amino)-1H-imidazo[4,5-b]pyridine-2-yl)-2,5-dimethyl-1H-pyrrol-1-yl)-4-methylphenyl)-2-(dimethylamino) acetamide], for which the inhibition at 10 µM in assay [1] (setting [6]) is above 50%; in assay [2] (setting [7]), above 50%; in assay [3] (setting [8]), above 50%; in assay [4] (10 μM, 72 hours, CCK-8) it was above 50%; in assay [5] (setting [9]), above 50%. Besides, the IC50 on MLK3 was 46 nM; against MLK1 it was 43 nM.

On to `Cc1ccc(NC(=O)CN(C)C)cc1-n1c(C)cc(-c2nc3ncc(Br)c(Nc4cccc(S(N)(=O)=O)c4)c3[nH]2)c1C` [Example 90, N-(3-(3-(6-bromo-7-((3-sulfamoylphenyl)amino)-1H-imidazo[4,5-b]pyridine-2-yl)-2,5-dimethyl-1H-pyrrol-1-yl)-4-methylphenyl)-2-(dimethylamino) acetamide], for which the inhibition at 10 µM in assay [1] (setting [6]) is above 50%; in assay [2] (setting [7]), 10 to 50%; in assay [3] (setting [8]), 10 to 50%; in assay [4] (10 μM, 72 hours, CCK-8), above 50%; in assay [5] (setting [9]), 10 to 50%. In addition, the IC50 on MLK3 came out at 92 nM; against MLK1, 160 nM.

As for `CCS(=O)(=O)N1CC[C@H](Nc2c(Br)cnc3nc(-c4cc(C)n(-c5cccc(NC(=O)CN6CCN(C)CC6)c5C)c4C)[nH]c23)C1` [Example 87, N-(3-(3-(6-bromo-7-(((S)-1-(ethylsulfonyl)pyrrolidine-3-yl)amino)-1H-imidazo[4,5-b]pyridine-2-yl)-2,5-dimethyl-1H-pyrrol-1-yl)-2-methylphenyl)-2-(4-methylpiperazine-1-yl) acetamide], the inhibition at 10 µM was above 50% in assay [1] (setting [10]); above 50% in assay [2] (setting [11]); above 50% in assay [3] (setting [12]); above 50% in assay [4] (72 h); above 50% in assay [5] (U-937, 72 h). The IC50 at MLK3 is 13 nM; at MLK1 it was 24 nM.

With `CCS(=O)(=O)N1CC[C@H](Nc2c(Br)cnc3nc(-c4cc(C)n(-c5cccc(NC(=O)CN(C)C)c5)c4C)[nH]c23)C1` [Example 64, (S)—N-(3-(3-(6-bromo-7-((1-(ethylsulfonyl)pyrrolidine-3-yl)amino)-1H-imidazo[4,5-b]pyridine-2-yl)-2,5-dimethyl-1H-pyrrol-1-yl)phenyl)-2-(dimethylamino) acetamide], the inhibition at 10 µM in assay [1] (setting [10]) is above 50%; in assay [2] (setting [11]), above 50%; in assay [3] (setting [12]), above 50%; in assay [4] (72 h) it was above 50%; in assay [5] (U-937, 72 h) it was above 50%. Besides, the IC50 on MLK3 was 14 nM; against MLK1 it was 34 nM.

Turning to `CCS(=O)(=O)N1CC[C@H](Nc2c(Br)cnc3nc(-c4cc(C)n(-c5cccc(NC(=O)CN6CCOCC6)c5)c4C)[nH]c23)C1` [Example 66, (S)—N-(3-(3-(6-bromo-7-((1-(ethylsulfonyl)pyrrolidine-3-yl)amino)-1H-imidazo[4,5-b]pyridine-2-yl)-2,5-dimethyl-1H-pyrrol-1-yl)phenyl)-2-morpholinoacetamide], the inhibition at 10 µM in assay [1] (setting [10]) is above 50%; in assay [2] (setting [11]) it was 10 to 50%; in assay [3] (setting [12]), above 50%; in assay [4] (72 h), above 50%; in assay [5] (U-937, 72 h), 10 to 50%. Also, the IC50 was 17 nM on MLK3 and 22 nM against MLK1.

With `CCS(=O)(=O)N1CC[C@H](Nc2c(Br)cnc3[nH]c(-c4cc(C)n(-c5cccc(C(=O)NCCN6CCN(C)CC6)c5)c4C)nc23)C1` [Example 71, (S)-3-(3-(6-bromo-7-((1-(ethylsulfonyl)pyrrolidine-3-yl)amino)-3H-imidazo[4,5-b]pyridine-2-yl)-2,5-dimethyl-1H-pyrrol-1-yl)-N-(2-(4-methylpiperazine-1-yl)ethyl)benzamide], the inhibition at 10 µM was above 50% in assay [1] (setting [10]); below 10% in assay [2] (setting [11]); above 50% in assay [3] (setting [12]); above 50% in assay [4] (72 h); 10 to 50% in assay [5] (U-937, 72 h). The IC50 on MLK3 stood at 26 nM; against MLK1, 36 nM.

Take `CCS(=O)(=O)N1CC[C@H](Nc2c(Br)cnc3[nH]c(-c4cc(C)n(-c5ccc(C(=O)NCCN6CCOCC6)cc5)c4C)nc23)C1` [Example 70, (S)-4-(3-(6-bromo-7-((1-(ethylsulfonyl)pyrrolidine-3-yl)amino)-3H-imidazo[4,5-b]pyridine-2-yl)-2,5-dimethyl-1H-pyrrol-1-yl)-N-(2-morpholinoethyl)benzamide]: the inhibition at 10 µM in assay [1] (setting [6]) was above 50%; in assay [2] (setting [7]), 10 to 50%; in assay [3] (setting [8]), 10 to 50%; in assay [4] (10 μM, 72 hours, CCK-8), above 50%; in assay [5] (setting [9]), above 50%. Also, the IC50 on MLK3 was found to be 18 nM; on MLK1, 36 nM.

Take `CCS(=O)(=O)N1CC[C@H](Nc2c(Br)cnc3nc(-c4cc(C)n(-c5cccc(NC(=O)CCN(C)C)c5C)c4C)[nH]c23)C1` [Example 79]: the inhibition at 10 µM is above 50% in assay [1] (setting [10]); above 50% in assay [2] (setting [11]); above 50% in assay [3] (setting [12]); above 50% in assay [4] (72 h); above 50% in assay [5] (U-937, 72 h). For the same molecule, the IC50 was determined as 7 nM at MLK3 and 35 nM at MLK1.

Turning to `CCS(=O)(=O)N1CC[C@H](Nc2c(Br)cnc3nc(-c4cc(C)n(-c5ccc(NC(=O)CN6CCN(C)CC6)cc5C)c4C)[nH]c23)C1` [Example 75, N-(4-(3-(6-bromo-7-(((S)-1-(ethylsulfonyl)pyrrolidine-3-yl)amino)-1H-imidazo[4,5-b]pyridine-2-yl)-2,5-dimethyl-1H-pyrrol-1-yl)-3-methylphenyl)-2-(4-methylpiperazine-1-yl) acetamide], the inhibition at 10 µM in assay [1] (setting [10]) is above 50%; in assay [2] (setting [11]), above 50%; in assay [3] (setting [12]), above 50%; in assay [4] (72 h) it was above 50%; in assay [5] (U-937, 72 h), above 50%. Moreover, the figures for the IC50 at MLK3 and against MLK1 were 16 nM and 30 nM, respectively.

Turning to `CCS(=O)(=O)N1CC[C@H](Nc2c(Br)cnc3nc(-c4cc(C)n(-c5ccc(C(=O)N6CCN(C)CC6)cc5)c4C)[nH]c23)C1` [Example 67, (S)-(4-(3-(6-bromo-7-((1-(ethylsulfonyl)pyrrolidine-3-yl)amino)-1H-imidazo[4,5-b]pyridine-2-yl)-2,5-dimethyl-1H-pyrrol-1-yl)phenyl) (4-methylpiperazine-1-yl) methanone], the inhibition at 10 µM is above 50% in assay [1] (setting [10]); 10 to 50% in assay [2] (setting [11]); 10 to 50% in assay [3] (setting [12]); above 50% in assay [4] (72 h); above 50% in assay [5] (U-937, 72 h). For the same molecule, the IC50 at MLK3 came to 19 nM; against MLK1, 32 nM.

Turning to `CCS(=O)(=O)N1CC[C@H](Nc2c(Br)cnc3nc(-c4cc(C)n(-c5cccc(C(=O)N6CCN(C)CC6)c5)c4C)[nH]c23)C1` [Example 68], the inhibition at 10 µM was above 50% in assay [1] (setting [10]); above 50% in assay [2] (setting [11]); above 50% in assay [3] (setting [12]); above 50% in assay [4] (72 h); above 50% in assay [5] (U-937, 72 h). Further, the figures for the IC50 on MLK3 and on MLK1 were 16 nM and 25 nM, respectively.

Turning to `CCS(=O)(=O)N1CC[C@H](Nc2c(Br)cnc3nc(-c4cc(C)n(-c5cc(NC(=O)CN6CCOCC6)ccc5C)c4C)[nH]c23)C1` [Example 78, N-(3-(3-(6-bromo-7-(((S)-1-(ethylsulfonyl)pyrrolidine-3-yl)amino)-1H-imidazo[4,5-b]pyridine-2-yl)-2,5-dimethyl-1H-pyrrol-1-yl)-4-methylphenyl)-2-morpholinoacetamide], the inhibition at 10 µM in assay [1] (setting [10]) was above 50%; in assay [2] (setting [11]) it was above 50%; in assay [3] (setting [12]), above 50%; in assay [4] (72 h) it was above 50%; in assay [5] (U-937, 72 h) it was above 50%. Moreover, the IC50 at MLK3 came to 47 nM; against MLK1 it was 25 nM.

Regarding `CCS(=O)(=O)N1CC[C@H](Nc2c(Br)cnc3nc(-c4cc(C)n(-c5cccc(NC(=O)CN6CCN(C)CC6)c5)c4C)[nH]c23)C1` [Example 65], the inhibition at 10 µM was above 50% in assay [1] (setting [10]); below 10% in assay [2] (setting [11]); above 50% in assay [3] (setting [12]); above 50% in assay [4] (72 h); above 50% in assay [5] (U-937, 72 h). Also, the IC50 stood at 26 nM at MLK3 and 42 nM at MLK1.
